The NIST ThermoML archive (doi:10.1021/je049534w)
Where “and” joins values, the source holds several entries; their conditions need not be identical. Equal values may be shown once.

Key:
[1] = Liquid, Linear variable-path acoustic interferometer
[2] = Solid-liquid equilibrium temperature; settings: Crystal, Speed of sound

CCCCn1cc[n+](C)c1.F[P-](F)(F)(F)(F)F [1-butyl-3-methylimidazolium hexafluorophosphate]
[1]
Settings | speed of sound
283.16 K, 100 kPa | 1455.5 m/s and 1457.6 m/s
283.16 K, 5088 kPa | 1468.6 m/s
283.16 K, 5131 kPa | 1470.6 m/s
283.16 K, 10263 kPa | 1481.8 m/s
283.16 K, 20249 kPa | 1506.7 m/s
283.16 K, 29954 kPa | 1529.9 m/s
283.16 K, 29995 kPa | 1532.5 m/s
283.16 K, 44961 kPa | 1564.2 m/s
283.16 K, 59682 kPa | 1596.7 m/s
283.16 K, 59829 kPa | 1599.6 m/s
283.16 K, 79904 kPa | 1638.6 m/s
283.16 K, 99077 kPa | 1677.1 m/s
283.16 K, 124179 kPa | 1724.4 m/s
283.16 K, 150925 kPa | 1772.6 m/s
291.15 K, 100 kPa | 1440.2 m/s
291.15 K, 5069 kPa | 1453.3 m/s
291.15 K, 10166 kPa | 1466.6 m/s
291.15 K, 20400 kPa | 1492.4 m/s
291.15 K, 30019 kPa | 1515.7 m/s
291.15 K, 44920 kPa | 1550 m/s
291.15 K, 59912 kPa | 1583.2 m/s
293.16 K, 100 kPa | 1432.8 m/s and 1431.6 m/s
293.16 K, 5157 kPa | 1446.5 m/s
293.16 K, 10195 kPa | 1459 m/s
293.16 K, 20215 kPa | 1484.2 m/s
293.16 K, 29959 kPa | 1507.9 m/s
293.16 K, 44757 kPa | 1542.2 m/s
293.16 K, 59732 kPa | 1574.7 m/s
293.16 K, 78627 kPa | 1613.8 m/s
293.16 K, 99149 kPa | 1654.5 m/s
294.16 K, 5125 kPa | 1444.5 m/s
294.16 K, 10105 kPa | 1457.2 m/s
294.16 K, 20357 kPa | 1483.2 m/s
294.16 K, 29785 kPa | 1506 m/s
303.16 K, 100 kPa | 1410.3 m/s
303.16 K, 5078 kPa | 1423.5 m/s
303.16 K, 10204 kPa | 1437.1 m/s
303.16 K, 20225 kPa | 1462.8 m/s
303.16 K, 44714 kPa | 1521.3 m/s
303.16 K, 59773 kPa | 1554.6 m/s
303.16 K, 98921 kPa | 1634.4 m/s
313.16 K, 100 kPa | 1389.5 m/s
313.16 K, 5010 kPa | 1402.8 m/s
313.16 K, 10043 kPa | 1416.4 m/s
313.16 K, 20319 kPa | 1443.3 m/s
313.16 K, 41702 kPa | 1495.1 m/s
313.16 K, 44866 kPa | 1502.9 m/s
313.16 K, 59754 kPa | 1536.3 m/s
313.16 K, 79721 kPa | 1578.6 m/s
313.16 K, 99097 kPa | 1617.4 m/s
313.16 K, 125283 kPa | 1662.2 m/s
323.25 K, 100 kPa | 1368 m/s
323.25 K, 5061 kPa | 1381.8 m/s
323.25 K, 9942 kPa | 1395.4 m/s
323.25 K, 20234 kPa | 1422.7 m/s
323.25 K, 29721 kPa | 1446.8 m/s
323.25 K, 44935 kPa | 1482.2 m/s
323.25 K, 59711 kPa | 1516 m/s
323.25 K, 79553 kPa | 1557.9 m/s
323.25 K, 98901 kPa | 1592.5 m/s

[2]
Settings | Solid-liquid equilibrium temperature [K]
100 kPa | 285
34000 kPa | 291.15
40200 kPa | 293.15
42500 kPa | 294.16
55000 kPa | 296.15
88900 kPa | 303.15
